Source: paper PMC11238919 (Virulence, 2024)
Several values for one entry are separate records, joined by “and”; a condition that tells them apart may be missing. Identical values can stand only once. Where no end group is shown, it is not given here. [ ]: non-standard residue; d: D form. pY = N[C@@H](Cc1ccc(OP(=O)(O)O)cc1)C(=O)O

What was measured:
SHIP2-SH2 domain = molecular target: T1, SHIP2-SH2 domain (Homo sapiens, UniProt O15357); assay: SPR affinity of EPIpYA peptides to immobilized SHIP2-SH2 domain; type: binding; conditions: EPIpYA-D versus EPIpYA-C
T1 sequence (O15357 21-117 limits assumed): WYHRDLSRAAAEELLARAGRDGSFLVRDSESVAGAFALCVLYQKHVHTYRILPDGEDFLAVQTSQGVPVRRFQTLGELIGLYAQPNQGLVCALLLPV

SHP2 = conditions: ref [10]; cited from earlier work
SHIP2 = conditions: ref [15]; cited from earlier work
[1] = tested on: hummingbird phenotype of infected cells; assay: Hummingbird phenotype of infected cells; type: cell-based; conditions: SHP099 10 µM added 48 h before infection
[2] = molecular target: T2, His-tagged SHIP2-SH2 domain (UniProt O15357 21-117); assay: SPR
T2 sequence (looked up): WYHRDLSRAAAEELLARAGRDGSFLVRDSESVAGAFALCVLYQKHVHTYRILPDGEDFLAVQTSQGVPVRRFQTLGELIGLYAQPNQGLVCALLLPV

## CC[C@H](C)[C@H](NC(=O)[C@@H](NC(=O)[C@H](C)NC(=O)[C@H](Cc1ccc(OP(=O)(O)O)cc1)NC(=O)[C@@H](NC(=O)[C@@H]1CCCN1C(=O)[C@H](CCC(=O)O)NC(=O)[C@@H]1CCCN1C(=O)[C@H](CO)NC(=O)[C@H](C)N)[C@@H](C)CC)[C@@H](C)O)C(=O)N[C@@H](CC(=O)O)C(=O)N[C@@H](Cc1ccccc1)C(=O)N[C@@H](CC(=O)O)C(=O)O [EPIpYA-D]
SHIP2-SH2 domain
  KD approximately 10 times lower than that of EPIpYA-C: approximately 10 times

## EPIYA-D: CagA^E-specific EPIYA-D segment (literature)
SHP2
  binding to SHP2, EPIYA-D versus EPIYA-C: binds to SHP2 more strongly than the EPIYA-C segment

## EPIYA-C: EPIYA-C motif of CagA^W (literature)
SHIP2
  binding to SHIP2, EPIYA-C versus EPIYA-D: binds slightly strongly to EPIYA-C than EPIYA-D

## CC1(N)CCN(c2cnc(-c3cccc(Cl)c3Cl)c(N)n2)CC1 [SHP099]
[1]
  differences in morphological changes between strain groups: the differences in the morphological changes between the groups were not obvious

B1: tyrosine-phosphorylated EPIYA-D peptide (ASPEPIpYATIDFD) (peptide)
peptide: ASPEPI[pY]ATIDFD
[2]
  Kd: 890 nM and 896 nM

B2: tyrosine-phosphorylated EPIYA-C peptide (VSPEPIpYATIDDL) (peptide)
peptide: VSPEPI[pY]ATIDDL
[2]
  Kd: 8350 nM
